Laboratory results taken from patent publication US20240132449A1, “HETEROCYCLIC COMPOUNDS AND METHODS OF USE THEREOF” (1cBio, Inc., priority 2022, published 2024).
Structures can show the parent of a compound that is named as a salt.

Legend:
[1] = tested on: DLD-1 wild-type colorectal adenocarcinoma cells; test: Cell viability assay (Cell Titer-Glo), DLD-1 wild-type; type: cell-based; conditions: Homo sapiens, DLD-1, 168 h, 7 days incubation; for inhibition at 10 µM: read-out: DLD-1 wild-type % inh at 10 μM; for IC50: 50 cells/well
How it was run: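 Isogenic DLD-1 wild-type (50 cells/well) and BRCA2(−/−) (200 cells/well) lines treated after overnight attachment, 7 days at 37 °C, 5% CO2. Ten-point dilutions (e.g. 1.5 nM–30 μM) or single dose; CellTiter-Glo luminescence; IC50 from four-parameter fit, plus % inhibition at 10 μM.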

PARP1 = PARP1 (Homo sapiens, UniProt P09874); test: PARP1 biochemical trapping assay (BPS PARPtrap)
Sequence of PARP1 (P09874 whole entry, the tested form may be a part): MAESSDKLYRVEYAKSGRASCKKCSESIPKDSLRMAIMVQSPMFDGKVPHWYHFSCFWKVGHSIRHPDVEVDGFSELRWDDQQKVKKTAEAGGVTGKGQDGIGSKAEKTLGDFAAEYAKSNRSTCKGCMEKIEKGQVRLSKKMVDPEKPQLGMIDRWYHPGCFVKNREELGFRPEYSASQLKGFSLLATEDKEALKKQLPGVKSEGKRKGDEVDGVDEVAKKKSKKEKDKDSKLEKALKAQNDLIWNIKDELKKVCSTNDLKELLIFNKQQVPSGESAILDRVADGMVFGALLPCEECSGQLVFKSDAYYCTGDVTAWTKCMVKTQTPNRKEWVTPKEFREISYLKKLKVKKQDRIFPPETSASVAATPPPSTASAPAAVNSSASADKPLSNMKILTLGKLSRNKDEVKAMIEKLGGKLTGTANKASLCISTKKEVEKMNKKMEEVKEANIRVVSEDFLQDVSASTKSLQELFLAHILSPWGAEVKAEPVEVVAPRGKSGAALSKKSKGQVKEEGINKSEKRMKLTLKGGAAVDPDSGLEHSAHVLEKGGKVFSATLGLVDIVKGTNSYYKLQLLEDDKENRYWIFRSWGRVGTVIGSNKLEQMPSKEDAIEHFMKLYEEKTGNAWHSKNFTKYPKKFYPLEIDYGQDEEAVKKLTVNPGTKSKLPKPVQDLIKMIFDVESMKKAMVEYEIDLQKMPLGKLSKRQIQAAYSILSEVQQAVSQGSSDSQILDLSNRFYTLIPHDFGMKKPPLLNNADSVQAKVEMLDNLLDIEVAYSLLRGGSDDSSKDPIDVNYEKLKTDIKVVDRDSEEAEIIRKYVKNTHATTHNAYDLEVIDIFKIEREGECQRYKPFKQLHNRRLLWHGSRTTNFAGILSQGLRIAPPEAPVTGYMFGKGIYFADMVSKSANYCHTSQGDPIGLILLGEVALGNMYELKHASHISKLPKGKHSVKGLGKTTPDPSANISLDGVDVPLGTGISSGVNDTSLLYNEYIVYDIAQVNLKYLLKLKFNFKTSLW
Procedure: Compounds of the present disclosure were tested in a PARP1 biochemical trapping assay at BPS Bioscience (San Diego, CA). PARP1 is known to bind damaged DNA through its DNA-binding domains. Binding to DNA activates PARP1, and in the presence of NAD+, PARP1 ribosylates itself (auto-ribosylation), leading to PARP1 dissociation from the DNA due to the accumulated negative charge of the ribosyl polymer. In the presence of some inhibitors, however, PARP remains bound to the DNA, a phenomenon termed trapping.
The BPS PARPtrap assay kit for PARP1 (BPS Catalog #80584) was used. A series of dilutions of the compounds were prepared with 10% DMSO in water. The final concentration of DMSO was 1% in all reactions. The enzymatic reactions were conducted in duplicates at room temperature in a 96-well plate. The 45 μl reaction mixtures in PARPtrap buffer 1 containing PARP1 fluorescent labelled oligonucleotide duplex, PARP enzyme and the test compound were incubated at room temperature for 10 min. After pre-incubation, the enzymatic reaction was initiated by adding 5 μl of 10×NAD+ solution. The reaction was incubated for 45-60 min at room temperature.
Fluorescence polarization was measured at an excitation of 470 nm and an emission of 518 nm using a Tecan Infinite M1000 microplate reader. The blank value was subtracted from all other values. Fluorescence polarization was analyzed by Tecan Magellan 6 software and wells containing DNA were used as references. The fluorescence polarization data were then evaluated using GraphPad Prism software. The fluorescence polarization in absence of the compound in each data set was defined as 0% activity (FPo), while the fluorescence polarization in the absence of both NAD+ and the compound was defined as 100% activity (FPt). The percent activity in the presence of the compound was calculated according to the equation % activity=[FP−FPo]/[(FPt−FPo)]×100, where FP=the fluorescence polarization in the presence of the compound.
The values of % activity versus a series of compound concentrations were then plotted using non-linear regression analysis of a sigmoidal dose-response curve generated with the equation Y=B+(T−B)/1+10^((LogEC50−X)×Hill Slope), where Y=percent activity, B=minimum percent activity, T=maximum percent activity, X=logarithm of compound and Hill Slope=slope factor or Hill coefficient. The EC50 value was determined by the concentration causing a half-maximal percent activity. EC50 values are shown in Table C and are presented in ranges, in which “+++”<300 nM, 300 nM≤“++”<3000 nM, and “+”≥3000 nM.

Compound | inhibition at 10 µM [1] [%] | IC50 [1] [nM] | EC50 (PARP1) [nM]
CCn1c(=O)[nH]c2cc(CN3CCN(c4ccc(C(=O)NC)nc4)CC3)ccc2c1=O [Compound 3, 5-(4-((3-ethyl-2,4-dioxo-1,2,3,4-tetrahydroquinazolin-7-yl)methyl)piperazin-1-yl)-N-methylpicolinamide formate] | < 33 | > 3000 | 300 to 3000
CCn1c(=O)[nH]c2cc(CN3CCN(c4ccc(C(=O)NC)nc4C)CC3)ccc2c1=O [Compound 16, 5-{4-[(3-ethyl-2,4-dioxo-1H-quinazolin-7-yl)methyl]piperazin-1-yl}-N,6-dimethylpyridine-2-carboxamide] | < 33 | > 3000 | < 300
CCn1c(=O)[nH]c2cc(CN3CCN(c4ccc(C(=O)NC)nc4C)CC3)ccc2c1=S [Compound 51, 5-(4-((3-ethyl-2-oxo-4-thioxo-1,2,3,4-tetrahydroquinazolin-7-yl)methyl)piperazin-1-yl)-N,6-dimethylpicolinamide formate] | > 67 | > 3000 | 300 to 3000
CCn1c(=O)[nH]c2cc(CN3CCN(c4ccc(C(=O)NC)nc4C)CC3)sc2c1=O [Compound 188, 5-(4-((3-ethyl-2,4-dioxo-1,2,3,4-tetrahydrothieno[3,2-d]pyrimidin-6-yl)methyl)piperazin-1-yl)-N,6-dimethylpicolinamide] | < 33 | > 3000 | 300 to 3000
CCN1Cc2ccc(CN3CCN(c4ccc(C(=O)NC)nc4)CC3)cc2NC1=O [Compound 196, 5-(4-((3-ethyl-2-oxo-1,2,3,4-tetrahydroquinazolin-7-yl)methyl)piperazin-1-yl)-N-methylpicolinamide formate] | < 33 | > 3000 | 300 to 3000
